The assay deals with T1, endogenous IKK immunoprecipitated from HEK293T cells (Homo sapiens, UniProt O14920+O15111).
T1 construct: endogenous canonical IKK, which was immunoprecipitated from HEK293T cells using an anti-NEMO antibody; endogenous in cells; host or cells: HEK293T cells induced with TNFα; anti-NEMO immunoprecipitate on protein G beads
Briefly: In vitro kinase assay with endogenous IKK, inhibition by synthetic peptides. The format is biochemical. The conditions noted are these: 500 μM synthetic peptide, 1 μM 6×His-IκBα wt, 30° C. The protocol: Using endogenous IKK complex. IKK was immunoprecipitated from HEK293T cells. 3 petri dishes (100×15 mm, corning) of cells at 70% confluence were induced with 10 nM recombinant TNFα (abcam, #ab9642) for 10 minutes, and then washed twice by cold PBS. The whole-cell extracts were prepared by addition of 1 ml of lysis buffer (50 mM HEPES pH 8, 200 mM NaCl, 0.5% NP-40, 1 mM EDTA, 10 mM KCl, 1 mM DTT, Roche cOmplete™ protease inhibitors cocktail, 50 mM NaF, 50 mM b-glycerophosphate and 1 mM Na orthovanadate) and homogenized by passing through a 21-gauge needle for 5-10 times. After 30 minutes of incubation on ice, the extracts were centrifuged at 11,000 g and at 4° C. The cleared supernatants were incubated with 15 μl of anti-NEMO antibody (Santa Cruz biotech, #F-10) overnight at 4° C. and, then, immunoprecipitated with 150 μl of protein G Sepharose beads (GE, #17-0618-01) for 2 hours at 4° C. […]
Kinase activity reactions were performed in kinase buffer (defined above) using 50 μl immunoprecipitant and 1 μM of purified full-length 6×His-IκBα wt or mutant constructs. […] The reaction products were analysed on a 10% SDS-PAGE gel and Western blotting using anti-phospho-IκBα (Cell Signaling Technology, #9246), anti-IKKβ (cell signaling, #2684s) and anti-6×His (sigma, #SAB4301134) antibodies. The relative amounts of phosphorylated IκBα were quantified using ImageJ.

Structures are written as SMILES. Residues, ends and D or L forms follow the SMILES beside them.

T1 sequence (O14920 whole entry): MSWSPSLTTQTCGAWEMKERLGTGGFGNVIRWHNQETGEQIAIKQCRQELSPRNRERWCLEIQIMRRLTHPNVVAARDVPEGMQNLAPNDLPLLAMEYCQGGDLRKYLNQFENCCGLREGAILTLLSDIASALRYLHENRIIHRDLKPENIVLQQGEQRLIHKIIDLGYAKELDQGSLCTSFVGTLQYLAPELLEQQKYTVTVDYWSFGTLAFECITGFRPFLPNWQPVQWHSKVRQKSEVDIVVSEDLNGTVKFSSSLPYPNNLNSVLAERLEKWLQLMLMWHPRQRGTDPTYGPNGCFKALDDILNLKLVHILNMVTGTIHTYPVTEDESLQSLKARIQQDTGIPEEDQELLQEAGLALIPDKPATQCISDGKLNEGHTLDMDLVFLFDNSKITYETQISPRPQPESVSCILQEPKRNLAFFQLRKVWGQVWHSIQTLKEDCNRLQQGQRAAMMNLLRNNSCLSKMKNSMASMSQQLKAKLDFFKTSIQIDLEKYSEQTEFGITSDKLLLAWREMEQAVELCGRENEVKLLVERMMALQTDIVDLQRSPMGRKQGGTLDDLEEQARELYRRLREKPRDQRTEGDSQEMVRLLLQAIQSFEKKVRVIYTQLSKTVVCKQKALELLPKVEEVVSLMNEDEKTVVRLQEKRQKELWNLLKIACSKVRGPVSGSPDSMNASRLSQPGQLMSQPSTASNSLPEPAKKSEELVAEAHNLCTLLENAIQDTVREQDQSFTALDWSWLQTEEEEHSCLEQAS
T1 sequence (O15111 whole entry): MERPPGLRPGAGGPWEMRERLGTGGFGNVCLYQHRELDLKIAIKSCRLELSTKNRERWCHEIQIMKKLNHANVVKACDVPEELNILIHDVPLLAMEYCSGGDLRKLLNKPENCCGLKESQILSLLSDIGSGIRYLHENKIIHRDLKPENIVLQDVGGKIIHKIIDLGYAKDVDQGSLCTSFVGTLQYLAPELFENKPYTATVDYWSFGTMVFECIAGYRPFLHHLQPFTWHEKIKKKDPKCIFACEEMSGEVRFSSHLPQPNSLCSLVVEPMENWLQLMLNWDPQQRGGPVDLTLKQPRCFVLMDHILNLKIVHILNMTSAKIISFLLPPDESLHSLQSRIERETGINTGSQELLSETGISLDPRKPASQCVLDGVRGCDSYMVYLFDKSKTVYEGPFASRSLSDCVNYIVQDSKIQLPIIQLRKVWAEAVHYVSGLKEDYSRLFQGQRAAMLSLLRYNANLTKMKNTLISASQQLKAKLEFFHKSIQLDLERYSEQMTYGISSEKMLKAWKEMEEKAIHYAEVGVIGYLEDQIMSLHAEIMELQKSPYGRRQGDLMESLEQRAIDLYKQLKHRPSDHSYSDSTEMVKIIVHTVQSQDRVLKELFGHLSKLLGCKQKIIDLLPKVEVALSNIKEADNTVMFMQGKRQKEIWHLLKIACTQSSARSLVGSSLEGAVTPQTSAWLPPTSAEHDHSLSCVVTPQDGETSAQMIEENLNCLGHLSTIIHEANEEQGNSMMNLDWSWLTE
T1 sequence (Q9Y6K9 whole entry partner): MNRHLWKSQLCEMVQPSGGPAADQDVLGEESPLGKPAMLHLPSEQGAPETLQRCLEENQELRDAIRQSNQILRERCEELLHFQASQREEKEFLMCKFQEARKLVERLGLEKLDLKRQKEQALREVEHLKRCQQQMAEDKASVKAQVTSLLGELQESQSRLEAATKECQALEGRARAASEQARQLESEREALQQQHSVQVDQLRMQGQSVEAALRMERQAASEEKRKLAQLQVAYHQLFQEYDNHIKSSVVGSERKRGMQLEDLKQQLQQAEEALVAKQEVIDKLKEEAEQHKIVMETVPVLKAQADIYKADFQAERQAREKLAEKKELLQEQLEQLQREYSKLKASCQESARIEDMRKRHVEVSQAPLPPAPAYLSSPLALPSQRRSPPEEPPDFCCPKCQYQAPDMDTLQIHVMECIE

Consider `CC(C)C[C@H](NC(=O)[C@@H](NC(=O)[C@H](CC(C)C)NC(=O)[C@H](CCCNC(=N)N)NC(=O)[C@H](CCC(N)=O)NC(=O)CNC(=O)CNC(=O)[C@H](Cc1ccccc1)NC(=O)[C@@H](NC(=O)[C@H](CC(C)C)NC(=O)[C@H](CC(=O)O)NC(=O)[C@H](CC(=O)O)NC(=O)[C@H](Cc1ccc(O)cc1)NC(=O)[C@@H]1CCCN1C(=O)[C@H](CC(C)C)NC(=O)[C@H](CCC(=O)O)NC(=O)[C@H](CC(=O)O)NC(=O)[C@H](CCC(=O)O)NC(=O)[C@@H](NC(=O)[C@H](Cc1ccccc1)NC(=O)[C@@H](N)CCC(=O)O)[C@@H](C)O)C(C)C)[C@@H](C)O)C(=O)O` [IkBα pep C308L] (H-EFTEDELPYDDLVFGGQRLTL-OH; N-terminus and C-terminus assumed), for which the “inhibition of IκBα phosphorylation (Ser32/Ser36)” value is on record as “inhibit IκBα phosphorylation more efficiently than the YD/SS negative control peptide”.

Take `CC(C)C[C@H](NC(=O)[C@@H](NC(=O)[C@H](CC(C)C)NC(=O)[C@H](CCCNC(=N)N)NC(=O)[C@H](CCC(N)=O)NC(=O)CNC(=O)CNC(=O)[C@H](Cc1ccccc1)NC(=O)[C@@H](NC(=O)[C@H](CS)NC(=O)[C@H](CC(=O)O)NC(=O)[C@H](CC(=O)O)NC(=O)[C@H](Cc1ccc(O)cc1)NC(=O)[C@@H]1CCCN1C(=O)[C@H](CC(C)C)NC(=O)[C@H](CCC(=O)O)NC(=O)[C@H](CC(=O)O)NC(=O)[C@H](CCC(=O)O)NC(=O)[C@@H](NC(=O)[C@H](Cc1ccccc1)NC(=O)[C@@H](N)CCC(=O)O)[C@@H](C)O)C(C)C)[C@@H](C)O)C(=O)O` [IκBα pep] (H-EFTEDELPYDDCVFGGQRLTL-OH; N-terminus and C-terminus assumed): the “inhibition of IκBα phosphorylation (Ser32/Ser36)” value is recorded as “inhibit IκBα phosphorylation more efficiently than the YD/SS negative control peptide”.

Values taken from patent publication US20260265321A1, “PEPTIDE AND POLYPEPTIDE INHIBITING THE NF-KB SIGNALING PATHWAY” (Centre National de la Recherche Scientifique, priority 2023, published 2026).
